Patent publication US20200071361A1, “ENGINEERED ANTIMICROBIAL AMPHIPHILIC PEPTIDES AND METHODS OF USE” (priority 2017, published 2020)
Values after ≈ are worked out from the molar mass of the structure shown.

Legend:
Assay type in all cases: cell-based
[1] = system: Enterococcus faecium ATCC 51559 (VRE); assay: Broth microdilution MIC (Table 2); details: read-out: MIC
Protocol: (§1) Each peptide was formulated in PBS buffer prior to testing. Peptides of SEQ ID NO:5 and SEQ ID NO:8 were brought up in 100% DMSO with 0.002% polysorbate-80 at 1.28 mg/mL (40× the highest final test concentration of 32 mcg/mL). Final test concentration of DMSO was 2.5% in the assay at the first dilution for those two compounds.
(§2) Mueller Hinton II broth (MHB II; BD; Lot Nos. 6258541 and 7143896) was used for MIC testing of aerobic organisms. 0.002% polysorbate 80 (P80) was added to the test medium.
(§3) MIC values were determined using a broth microdilution procedure described by CLSI (1, 3). Automated liquid handlers (Multidrop 384, Labsystems, Helsinki, Finland; Biomek 2000 and Biomek FX, Beckman Coulter, Fullerton Calif.) were used to conduct serial dilutions and liquid transfers.
(§4) To prepare the drug mother plates, which would provide the serial peptide dilutions for the replicate daughter plates, the wells of columns 2-12 of standard 96-well microdilution plates (Costar 3795) were filled with 150 μl of the designated diluent for each row of peptide. The test articles and comparator compounds (300 μl at 40× the highest concentration to be tested) were dispensed into the appropriate wells in column 1. The Biomek 2000 was then used to make 2-fold serial dilutions in the mother plates from column 1 through column 11. The wells of Column 12 contained no drug and served as the organism growth control wells for the assay.
(§5) The daughter plates were loaded with 185 μL per well of MHB II using the Multidrop 384. The daughter plates were completed on the Biomek FX instrument which transferred 5 uL of peptide solution from each well of a mother plate to the corresponding well of each daughter plate in a single step. A standardized inoculum of each test organism was prepared per CLSI methods. The inoculum for each organism was dispensed into sterile reservoirs divided by length (Beckman Coulter), and the Biomek 2000 was used to inoculate the plates. Daughter plates were placed on the Biomek 2000 work surface in reverse orientation so that inoculation took place from low to high drug concentration. The plates were then inoculated with 10 μL of the inoculum resulting in a final cell density of approximately 5×10^5 CFU/mL, per well.
(§6) Plates were stacked 3-4 high, covered with a lid on the top plate, placed in plastic bags, and incubated at 35° C. for 16 to 20 hrs. Following incubation, the microplates were removed from the incubator and viewed from the bottom using a plate viewer. […] The MIC was read and recorded as the lowest concentration of peptide that inhibited visible growth of the organism.

[2] = system: Pseudomonas aeruginosa ATCC BAA-2109 (MDR); assay: Broth microdilution MIC (Table 2); details: ATCCBAA2109
Protocol: as §1, §2, §3, §4, §5, §6

[3] = system: Streptococcus pneumoniae ATCC 49619 (QC); assay: Broth microdilution MIC (Table 2); details: ATCC49619, read-out: MIC
Protocol: as §1, §2, §3, §4, §5, §6

[4] = system: Escherichia coli ATCC 25922 (QC); assay: Broth microdilution MIC (Table 2); details: ATCC25922
Protocol: as §1, §2, §3, §4, §5, §6

[5] = system: Staphylococcus aureus NRS382 (USA100; HA-MRSA); assay: Broth microdilution MIC (Table 2); details: read-out: MIC
Protocol: as §1, §2, §3, §4, §5, §6

[6] = system: Escherichia coli isolates (n = 101); assay: Broth microdilution MIC, clinical isolate panel; details: Escherichia coli (n = 101)
[7] = system: Staphylococcus aureus isolates (n = 104); assay: Broth microdilution MIC, clinical isolate panel; details: Staphylococcus aureus (n = 104), all methicillin-resistant
[8] = system: Klebsiella pneumoniae isolates (n = 101); assay: Broth microdilution MIC, clinical isolate panel; details: Klebsiella pneumoniae (n = 101)
[9] = system: Acinetobacter spp. isolates (n = 104); assay: Broth microdilution MIC, clinical isolate panel; details: Acinetobacter spp. (n = 104)
[10] = system: Pseudomonas aeruginosa isolates (n = 109); assay: Broth microdilution MIC, clinical isolate panel; details: Pseudomonas aeruginosa

C[C@H]1COc2c(N3CCN(C)CC3)c(F)cc3c(=O)c(C(=O)O)cn1c23 [Levofloxacin]
MIC [1]: 16 µg/mL (≈ 44.3 µM) | MIC [2]: 1 µg/mL (≈ 2.77 µM) | MIC [3]: 1 µg/mL (≈ 2.77 µM) | MIC [4]: 0.015 µg/mL (≈ 0.0415 µM) | MIC [5]: 8 µg/mL (≈ 22.1 µM) | % R (percent of isolates resistant, clinical breakpoints) [6]: ~50% | MIC50 [6]: 4 µg/mL (≈ 11.1 µM) | % R (percent of isolates resistant, clinical breakpoints) [7]: Over 80% | MIC50 [7]: 8 µg/mL (≈ 22.1 µM) | % R (percent of isolates resistant, clinical breakpoints) [8]: over 60% | MIC50 [9]: 8 µg/mL (≈ 22.1 µM) | MIC50 [10]: 1 µg/mL (≈ 2.77 µM) | MIC ([10]; read-out: Mode (MIC)): 0.25 µg/mL (≈ 0.692 µM)
